Experimental data published in patent US20070021456A1, “Aminobenzimidazole derivatives” (MERCK PATENT GMBH, priority 2003, published 2007).

Molecular target: Tie-2 kinase (Homo sapiens, UniProt Q02763)
Test: TIE-2 kinase flashplate assay (phosphorylation of poly(Glu, Tyr) with 33P-ATP)
Type: biochemical
Conditions: read-out: Inhibition of TIE-2 IC50
Protocol: The assay determines the inhibiting activity of the substances to be tested in the phosphorylation of the substrate poly(Glu, Tyr) by Tie-2 kinase in the presence of radioactive ^33P-ATP. The phosphorylated substrate binds to the surface of a “flashplate” microtitre plate during the incubation time. After removal of the reaction mixture, the microtitre plate is washed a number of times and the radioactivity on its surface is subsequently measured. An inhibiting effect of the substances to be measured results in lower radioactivity compared with an undisturbed enzymatic reaction.

Tie-2 kinase, sequence (Q02763 23-1124): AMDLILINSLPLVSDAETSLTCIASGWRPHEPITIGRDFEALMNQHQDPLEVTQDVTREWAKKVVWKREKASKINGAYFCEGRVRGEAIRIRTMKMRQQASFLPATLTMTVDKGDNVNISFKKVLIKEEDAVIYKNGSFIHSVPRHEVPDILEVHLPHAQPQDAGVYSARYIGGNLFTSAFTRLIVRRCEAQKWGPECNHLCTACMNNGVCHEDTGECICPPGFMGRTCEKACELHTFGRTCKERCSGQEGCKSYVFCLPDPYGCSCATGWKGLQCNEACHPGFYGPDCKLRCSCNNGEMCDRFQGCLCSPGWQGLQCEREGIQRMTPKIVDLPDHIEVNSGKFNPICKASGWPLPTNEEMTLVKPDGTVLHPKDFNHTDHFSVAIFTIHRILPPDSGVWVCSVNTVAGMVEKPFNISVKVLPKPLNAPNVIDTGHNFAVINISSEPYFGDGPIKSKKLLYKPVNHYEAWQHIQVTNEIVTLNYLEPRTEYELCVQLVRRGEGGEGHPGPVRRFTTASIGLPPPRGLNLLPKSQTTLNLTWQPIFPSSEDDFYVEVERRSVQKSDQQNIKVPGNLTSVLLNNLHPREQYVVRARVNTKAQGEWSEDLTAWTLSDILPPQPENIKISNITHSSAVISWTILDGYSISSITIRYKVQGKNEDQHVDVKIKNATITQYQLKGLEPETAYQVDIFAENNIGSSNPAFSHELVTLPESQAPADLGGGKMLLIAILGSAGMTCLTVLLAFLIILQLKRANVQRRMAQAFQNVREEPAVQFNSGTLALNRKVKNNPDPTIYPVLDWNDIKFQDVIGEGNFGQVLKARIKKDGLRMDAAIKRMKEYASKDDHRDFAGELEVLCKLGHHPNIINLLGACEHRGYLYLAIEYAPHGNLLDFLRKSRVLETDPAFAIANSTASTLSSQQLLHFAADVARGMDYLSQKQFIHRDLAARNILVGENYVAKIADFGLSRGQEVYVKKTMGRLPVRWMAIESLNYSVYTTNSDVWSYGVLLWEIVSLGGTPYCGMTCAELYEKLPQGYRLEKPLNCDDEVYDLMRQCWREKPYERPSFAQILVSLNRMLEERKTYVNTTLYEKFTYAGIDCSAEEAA

Point of comparison: `FC(F)(F)c1cc(Br)c2nc(Nc3ccc(Oc4ccc5nsnc5c4)cc3)[nH]c2c1` [A1, [4-(benzo-1,2,5-thiadiazol-5-yloxy)phenyl](4-bromo-6-trifluoromethyl-1H-benzimidazol-2-yl)amine], IC50 220 nM. Against it:
- FC(F)(F)c1cc(Cl)c2nc(Nc3ccc(Oc4ccc5nsnc5c4)cc3)[nH]c2c1 [No. 2] — within 1.5-fold, 250 nM
- Nc1nc2ccc(Oc3ccc(Nc4nc5cc(C(F)(F)F)cc(Cl)c5[nH]4)cc3)cc2s1 [No. 38] — within 1.5-fold, 320 nM
- Cc1cc(Oc2ccc(Nc3nc4c(Br)cc(C(F)(F)F)cc4[nH]3)cc2)c(C)c2sc(N)nc12 [No. 31] — 1.8-fold higher, 390 nM
